This assay has as its system thoracic aorta blood vessel plaque. The settings on record: high fat/high cholesterol fed rabbit; 5-ALA 80 mg/kg intraperitoneal 1.5 h before; substrate (carbamide peroxide) intravenously infused; irradiation once with 5 Gy; examined on the seventh day. From the text:
The New-Zealand rabbit model of blood vessel plaque is a common animal experimental model. […] The blood vessel plaque was taken as the target region and positioned, and a radiotherapy plan was made.

Consider one compound from patent publication US20140257169A1, “USE OF PHOTO[…] PREPARATION OF VIRUS-INACTIVATING MEDICAMENTS FOR TREATING DISEASES” (Beijing Ecyber Medical Technology R & D Center Co. , Ltd., priority 2013, published 2014).

Regarding `NCC(=O)CCC(=O)O` [5-ALA], the “regression of thoracic aorta blood vessel plaque (CTA angiography and MR)” value is on record as “completely disappeared”.
